The source made the active and inactive calls. The calls are words filed in the database; no cut-off is given here.
What was measured:
Gamma-secretase [1] = experiment: Effect on gamma-secretase activity in human H4 cells expressing APP695 assessed as increase in Amyloid beta-38 formation by LPECL assay; type: cell-based; conditions: read-out: IC50 (the source's name)
Gamma-secretase [2] = experiment: Effect on gamma-secretase activity in human H4 cells expressing APP695 assessed as reduction of Amyloid beta-40 formation LPECL assay; type: cell-based
Gamma-secretase [3] = experiment: Effect on gamma-secretase activity in human H4 cells expressing APP695 assessed as reduction of Amyloid beta42 formation LPECL assay; type: cell-based
H4 = experiment: Cytotoxicity against human H4 cells assessed as reduction of viability; type: cell-based
[4] = target: Prostaglandin G/H synthase 1 (Homo sapiens) (UniProt P23219); experiment: Activity of COX1 at 10 uM
Prostaglandin G/H synthase 1 (Homo sapiens), sequence (P23219 whole entry): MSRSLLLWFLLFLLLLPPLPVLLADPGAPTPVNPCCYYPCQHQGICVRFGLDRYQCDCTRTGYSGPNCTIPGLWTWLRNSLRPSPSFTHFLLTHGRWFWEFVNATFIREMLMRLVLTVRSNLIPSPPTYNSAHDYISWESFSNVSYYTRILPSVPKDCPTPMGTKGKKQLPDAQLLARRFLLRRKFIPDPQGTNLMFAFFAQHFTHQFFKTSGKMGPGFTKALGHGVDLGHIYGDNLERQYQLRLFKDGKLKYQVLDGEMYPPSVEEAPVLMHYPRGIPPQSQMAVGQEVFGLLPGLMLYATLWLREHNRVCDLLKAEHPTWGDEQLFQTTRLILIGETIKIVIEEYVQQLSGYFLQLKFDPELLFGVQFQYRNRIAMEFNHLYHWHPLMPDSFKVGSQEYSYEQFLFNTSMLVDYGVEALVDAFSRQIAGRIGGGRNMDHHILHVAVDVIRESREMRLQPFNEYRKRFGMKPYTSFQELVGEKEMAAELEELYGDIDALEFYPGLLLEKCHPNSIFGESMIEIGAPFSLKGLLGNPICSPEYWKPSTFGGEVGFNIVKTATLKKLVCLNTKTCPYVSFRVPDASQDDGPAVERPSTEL

[5] = target: T1, Prostaglandin G/H synthase 2 (Homo sapiens) (UniProt P35354); experiment: Activity of COX2 at 10 uM
T1 sequence (whole entry): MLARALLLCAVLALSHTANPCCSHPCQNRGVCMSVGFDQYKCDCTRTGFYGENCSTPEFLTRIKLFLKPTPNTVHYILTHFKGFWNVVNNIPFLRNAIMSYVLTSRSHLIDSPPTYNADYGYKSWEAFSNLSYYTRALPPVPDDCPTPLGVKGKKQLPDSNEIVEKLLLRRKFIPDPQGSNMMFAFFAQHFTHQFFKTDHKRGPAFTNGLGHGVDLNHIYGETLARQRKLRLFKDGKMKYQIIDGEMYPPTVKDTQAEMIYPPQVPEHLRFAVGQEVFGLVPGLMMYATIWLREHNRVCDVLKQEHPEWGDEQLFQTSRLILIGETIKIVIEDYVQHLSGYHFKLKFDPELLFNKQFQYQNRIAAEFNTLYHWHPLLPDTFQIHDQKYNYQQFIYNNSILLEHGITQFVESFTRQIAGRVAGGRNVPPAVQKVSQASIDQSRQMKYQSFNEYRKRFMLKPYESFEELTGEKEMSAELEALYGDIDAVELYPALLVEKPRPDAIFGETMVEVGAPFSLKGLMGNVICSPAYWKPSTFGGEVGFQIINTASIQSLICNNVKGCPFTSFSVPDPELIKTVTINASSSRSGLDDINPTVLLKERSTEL

Structure (SMILES) | EC50 (Gamma-secretase [1]) | IC50 (Gamma-secretase [2]) | IC50 (Gamma-secretase [3]) | Activity [4] | Activity [5] | Activity (H4)
C[C@H](c1ccc(F)cc1CCCC(=O)O)N(c1cc(F)ccc1F)S(=O)(=O)c1ccc(Cl)cc1 |  |  | 0.0071 µM |  |  | 
CCCCCCCCn1c2ccccc2c2ccc(OCC(=O)O)cc21 | 24 µM | > 40 µM | 19 µM |  |  | > 40 µM
CCCCCCCCCCn1c2ccc(Cl)cc2c2ccc(C(C)C(=O)O)cc21 (configuration not stated) | 5.8 µM | > 40 µM | 2.9 µM |  |  | 
O=C(O)COc1ccc2c3ccccc3n(S(=O)(=O)c3cc(F)cc(F)c3)c2c1 | 13 µM | > 40 µM | > 40 µM |  |  | 40 µM
CCCc1ccc(S(=O)(=O)n2c3ccccc3c3ccc(OCC(=O)O)cc32)cc1 |  | > 40 µM | 38 µM |  |  | > 40 µM
O=C(O)COc1ccc2c(c1)[nH]c1ccccc12 | > 40 µM | > 40 µM | > 40 µM |  |  | > 40 µM
CCCCCCCCCn1c2ccccc2c2ccc(OCC(=O)O)cc21 | 30 µM | > 40 µM | 17 µM |  |  | > 40 µM
O=C(O)COc1ccc2c3ccccc3n(S(=O)(=O)c3ccc(-c4ccccc4)cc3)c2c1 | 13 µM | 40 µM | 24 µM |  |  | 20 µM

The next lines start with results.

EC50 (Gamma-secretase [1]) | IC50 (Gamma-secretase [2]) | IC50 (Gamma-secretase [3]) | Activity [4] | Activity [5] | Structure (SMILES) | Activity (H4)
13 µM | > 40 µM | 39 µM |  |  | Cc1ccc(S(=O)(=O)n2c3ccccc3c3ccc(OCC(=O)O)cc32)cc1 | 20 µM
32 µM | > 40 µM | 32 µM |  |  | O=C(O)COc1ccc2c3ccccc3n(S(=O)(=O)c3ccc(Cl)cc3)c2c1 | 40 µM
 | > 40 µM | 11 µM |  |  | CCCCCCCCCCn1c2ccccc2c2ccc(OCC(=O)O)cc21 | > 40 µM
> 40 µM | > 40 µM | > 40 µM |  |  | O=C(O)COc1ccc2c3ccccc3n(S(=O)(=O)c3ccccc3Br)c2c1 | 40 µM
16 µM | > 40 µM | > 40 µM |  |  | O=C(O)COc1ccc2c3ccccc3n(S(=O)(=O)c3cccc([N+](=O)[O-])c3)c2c1 | 40 µM
9.3 µM | > 20 µM | 8.5 µM |  |  | CC(C)c1cc(C(C)C)c(S(=O)(=O)n2c3ccc(Cl)cc3c3ccc(C(C)C(=O)O)cc32)c(C(C)C)c1 (configuration not stated) | 
7.8 µM | 19 µM | 7.5 µM | inactive | inactive | CC(C)c1cc(C(C)C)c(S(=O)(=O)n2c3ccccc3c3ccc(OCC(=O)O)cc32)c(C(C)C)c1 | 20 µM
 | > 40 µM | 37 µM |  |  | CCCCCCCCc1ccc(S(=O)(=O)n2c3ccccc3c3ccc(OCC(=O)O)cc32)cc1 | > 40 µM
> 40 µM | > 40 µM | > 40 µM |  |  | O=C(O)COc1ccc2c3ccccc3n(S(=O)(=O)c3cc(C(F)(F)F)cc(C(F)(F)F)c3)c2c1 | 20 µM
